Laboratory results from US10906915B2, “Substituted pyrazoloazepin-4-ones and their use as phosphodiesterase inhibitors” (LEO Pharma A/S, priority 2016, dated 2021).

biological target: human PDE4D catalytic domain (UniProt no. Q08499) (Homo sapiens (Human), UniProt Q08499); test: PDE4 assay (TR-FRET, FAM-cAMP cleavage); type: biochemical; settings: human PDE4D catalytic domain; molar concentration giving 50% inhibition of substrate cleavage; read-out: PDE4 IC50 range
Experimental: The human PDE4D catalytic domain (UniProt no. Q08499 [[…]]) was incubated with a mixture of non-labelled cAMP (cyclic adenosine monophosphate) and fluorescein amidite (FAM) conjugated cAMP and titrated test or reference compound. Following brief incubation the enzymatic reaction was stopped by addition of binding buffer containing nanoparticles with immobilized trivalent metal ions capable of binding 1) AMP phospho groups and 2) terbium (Tb) donor fluorophores. Subsequent excitation of the Tb donor triggers time-resolved FRET to adjacent FAM acceptor molecules resulting in light emission. In the presence of a PDE4 inhibitor, AMP generation was reduced resulting in a lower fluorescence signal. The cAMP phosphodiester is not bound by the detection system.
The results were calculated as the molar concentrations resulting in 50% inhibition of the substrate cleavage compared to controls samples, and are expressed as a range of IC50 (nM).

human PDE4D catalytic domain, sequence (Q08499 380-740 limits assumed): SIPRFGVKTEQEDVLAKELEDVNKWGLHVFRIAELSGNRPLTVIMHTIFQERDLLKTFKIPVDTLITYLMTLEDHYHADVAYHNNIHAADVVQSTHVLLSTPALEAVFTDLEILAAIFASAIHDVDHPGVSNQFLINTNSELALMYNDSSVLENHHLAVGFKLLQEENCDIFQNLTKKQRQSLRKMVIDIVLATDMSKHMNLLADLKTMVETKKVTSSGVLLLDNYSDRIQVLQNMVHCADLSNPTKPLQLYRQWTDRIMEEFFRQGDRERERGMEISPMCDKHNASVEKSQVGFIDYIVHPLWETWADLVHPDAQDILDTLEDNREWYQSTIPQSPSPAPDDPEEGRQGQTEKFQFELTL

Row | Structure (SMILES) | IC50 [nM]
1 | CCc1nn(C[C@@H](C)COC(=O)c2ccc(C(=O)N3CCCCC3)cc2)c2c1C(=O)NCC1(CCOCC1)C2 [Example 258, [(2R)-3-(3-ethyl-4-oxo-spiro[6,8-dihydro-5H-pyrazolo[4,3-c]azepine-7,4′-tetrahydropyran]-1-yl)-2-methyl-propyl] 4-(piperidine-1-carbonyl)benzoate] | < 100
2 | CCc1nn(CCCOC(=O)c2ccc(C)c(Cl)c2)c2c1C(=O)NCC1(CCOCC1)C2 [Example 72, 3-(3-ethyl-4-oxo-spiro[6,8-dihydro-5H-pyrazolo[4,3-c]azepine-7,4′-tetrahydropyran]-1-yl)propyl 3-chloro-4-methyl-benzoate] | < 100
3 | CCc1nn(CCCOC(=O)C2CC(F)(F)C2)c2c1C(=O)NCC1(CCOCC1)C2 [Example 14, 3-(3-ethyl-4-oxo-spiro[6,8-dihydro-5H-pyrazolo[4,3-c]azepine-7,4’-tetrahydropyran]-1-yl)propyl 3,3-difluorocyclobutane-carboxylate] | 100 to 500
4 | CCc1nn(C[C@@H](C)COC(=O)c2cc(F)cc(C(F)(F)F)c2)c2c1C(=O)NCC1(CCOCC1)C2 [Example 225, [(2R)-3-(3-ethyl-4-oxo-spiro[6,8-dihydro-5H-pyrazolo[4,3-c]azepine-7,4′-tetrahydropyran]-1-yl)-2-methyl-propyl] 3-fluoro-5-(trifluoromethyl)benzoate] | < 100
5 | CCc1nn(C[C@@H](C)COC(=O)c2ccc(C)cc2OC)c2c1C(=O)NCC1(CCOCC1)C2 [Example 187, [(2R)-3-(3-ethyl-4-oxo-spiro[6,8-dihydro-5H-pyrazolo[4,3-c]azepine-7,4′-tetrahydropyran]-1-yl)-2-methyl-propyl] 2-methoxy-4-methyl-benzoate] | < 100
6 | CCc1nn(CCCOC(=O)c2ccc(C(=O)N(C)C)cc2)c2c1C(=O)NCC1(CCOCC1)C2 [Example 143, 3-(3-ethyl-4-oxo-spiro[6,8-dihydro-5H-pyrazolo[4,3-c]azepine-7,4′-tetrahydropyran]-1-yl)propyl 4-(dimethylcarbamoyl)-benzoate] | 100 to 500
7 | CCc1nn(CCCOC(=O)c2cc(F)cc(F)c2)c2c1C(=O)NCC1(CCOCC1)C2 [Example 43, 3-(3-ethyl-4-oxo-spiro[6,8-dihydro-5H-pyrazolo[4,3-c]azepine-7,4′-tetrahydropyran]-1-yl)propyl 3,5-difluorobenzoate] | < 100
8 | CCc1nn(C[C@@H](C)COC(=O)c2c(F)cccc2F)c2c1C(=O)NCC1(CCOCC1)C2 [Example 176, [(2R)-3-(3-ethyl-4-oxo-spiro[6,8-dihydro-5H-pyrazolo[4,3-c]azepine-7,4′-tetrahydropyran]-1-yl)-2-methyl-propyl] 2,6-difluorobenzoate] | < 100
9 | CCc1nn(CCCOC(=O)c2cccc(C(N)=O)c2)c2c1C(=O)NCC1(CCOCC1)C2 [Example 150, 3-(3-ethyl-4-oxo-spiro[6,8-dihydro-5H-pyrazolo[4,3-c]azepine-7,4′-tetrahydropyran]-1-yl)propyl 3-carbamoylbenzoate] | < 100
10 | CCc1nn(CCCOC(=O)c2ccc(C)cc2F)c2c1C(=O)NCC1(CCOCC1)C2 [Example 33, 3-(3-ethyl-4-oxo-spiro[6,8-dihydro-5H-pyrazolo[4,3-c]azepine-7,4′-tetrahydropyran]-1-yl)propyl 2-fluoro-4-methyl-benzoate] | < 100
11 | CCNC(=O)c1cccc(C(=O)OCCCn2nc(CC)c3c2CC2(CCOCC2)CNC3=O)c1 [Example 152, 3-(3-ethyl-4-oxo-spiro[6,8-dihydro-5H-pyrazolo[4,3-c]azepine-7,4′-tetrahydropyran]-1-yl)propyl 3-(ethylcarbamoyl)benzoate] | < 100
12 | CCc1nn(CCCOC(=O)c2cccc(Cl)c2F)c2c1C(=O)NCC1(CCOCC1)C2 [Example 78, 3-(3-ethyl-4-oxo-spiro[6,8-dihydro-5H-pyrazolo[4,3-c]azepine-7,4′-tetrahydropyran]-1-yl)propyl 3-chloro-2-fluoro-benzoate] | < 100
13 | CCc1nn(CCCOC(=O)c2ccc(F)cc2Cl)c2c1C(=O)NCC1(CCOCC1)C2 [Example 77, 3-(3-ethyl-4-oxo-spiro[6,8-dihydro-5H-pyrazolo[4,3-c]azepine-7,4′-tetrahydropyran]-1-yl)propyl 2-chloro-4-fluoro-benzoate] | < 100
14 | CCc1nn(C[C@@H](C)COC(=O)c2ccc(Cl)cc2F)c2c1C(=O)NCC1(CCOCC1)C2 [Example 205, [(2R)-3-(3-ethyl-4-oxo-spiro[6,8-dihydro-5H-pyrazolo[4,3-c]azepine-7,4′-tetrahydropyran]-1-yl)-2-methyl-propyl] 4-chloro-2-fluoro-benzoate] | < 100
15 | CCc1nn(CCCOC(=O)c2ccc(C(F)F)cc2)c2c1C(=O)NCC1(CCOCC1)C2 [Example 76, 3-(3-ethyl-4-oxo-spiro[6,8-dihydro-5H-pyrazolo[4,3-c]azepine-7,4′-tetrahydropyran]-1-yl)propyl 4-(difluoromethyl)benzoate] | < 100
16 | CCc1nn(C[C@@H](C)COC(=O)c2cc(Cl)ccc2OC)c2c1C(=O)NCC1(CCOCC1)C2 [Example 210, [(2R)-3-(3-ethyl-4-oxo-spiro[6,8-dihydro-5H-pyrazolo[4,3-c]azepine-7,4′-tetrahydropyran]-1-yl)-2-methyl-propyl] 5-chloro-2-methoxy-benzoate] | < 100
17 | CCc1nn(C[C@@H](C)COC(=O)c2cccc(S(=O)(=O)NC)c2)c2c1C(=O)NCC1(CCOCC1)C2 [Example 228, [(2R)-3-(3-ethyl-4-oxo-spiro[6,8-dihydro-5H-pyrazolo[4,3-c]azepine-7,4′-tetrahydropyran]-1-yl)-2-methyl-propyl] 3-(methylsulfamoyl)benzoate] | < 100
18 | CCc1nn(C[C@@H](C)COC(=O)c2cccc(OC)c2F)c2c1C(=O)NCC1(CCOCC1)C2 [Example 190, [(2R)-3-(3-ethyl-4-oxo-spiro[6,8-dihydro-5H-pyrazolo[4,3-c]azepine-7,4′-tetrahydropyran]-1-yl)-2-methyl-propyl] 2-fluoro-3-methoxy-benzoate] | < 100
19 | CCc1nn(CCCOC(=O)c2cc(OC)ccc2F)c2c1C(=O)NCC1(CCOCC1)C2 [Example 67, 3-(3-ethyl-4-oxo-spiro[6,8-dihydro-5H-pyrazolo[4,3-c]azepine-7,4′-tetrahydropyran]-1-yl)propyl 2-fluoro-5-methoxy-benzoate] | < 100
20 | CCc1nn(C[C@@H](C)COC(=O)c2cccc(C#N)c2)c2c1C(=O)NCC1(CCOCC1)C2 [Example 167, [(2R)-3-(3-ethyl-4-oxo-spiro[6,8-dihydro-5H-pyrazolo[4,3-c]azepine-7,4′-tetrahydropyran]-1-yl)-2-methyl-propyl] 3-cyanobenzoate] | < 100
21 | CCc1nn(CCCOC(=O)c2ccc(C(F)(F)F)c(Cl)c2)c2c1C(=O)NCC1(CCOCC1)C2 [Example 125, 3-(3-ethyl-4-oxo-spiro[6,8-dihydro-5H-pyrazolo[4,3-c]azepine-7,4′-tetrahydropyran]-1-yl)propyl 3-chloro-4-(trifluoromethyl)benzoate] | < 100
22 | CCc1nn(C[C@@H](C)COC(=O)c2ccc(OC)c(C(F)(F)F)c2)c2c1C(=O)NCC1(CCOCC1)C2 [Example 230, [(2R)-3-(3-ethyl-4-oxo-spiro[6,8-dihydro-5H-pyrazolo[4,3-c]azepine-7,4′-tetrahydropyran]-1-yl)-2-methyl-propyl] 4-methoxy-3-(trifluoromethyl)benzoate] | < 100

same assay, conditions: read-out: PDE4 IC50 range

Row | Structure (SMILES) | IC50 [nM]
23 | CCc1nn(CC(C)(C)COC(=O)c2cccc(C(=O)N3CCCCC3)c2)c2c1C(=O)NCC1(CCOCC1)C2 [Example 345] | < 100
24 | CCc1nn(C[C@H](C)COC(=O)c2cccc(OC)c2)c2c1C(=O)NCC1(CCOCC1)C2 [Example 278, [(2S)-3-(3-ethyl-4-oxo-spiro[6,8-dihydro-5H-pyrazolo[4,3-c]azepine-7,4′-tetrahydropyran]-1-yl)-2-methyl-propyl] 3-methoxybenzoate] | < 100
25 | CCc1nn(C[C@H](C)COC(=O)c2ccc(C)cc2)c2c1C(=O)NCC1(CCOCC1)C2 [Example 275, [(2S)-3-(3-ethyl-4-oxo-spiro[6,8-dihydro-5H-pyrazolo[4,3-c]azepine-7,4′-tetrahydropyran]-1-yl)-2-methyl-propyl] 4-methylbenzoate] | < 100
26 | CCc1nn(CC(C)(C)COC(=O)c2cccc(S(N)(=O)=O)c2)c2c1C(=O)NCC1(CCOCC1)C2 [Example 308, [3-(3-ethyl-4-oxo-spiro[6,8-dihydro-5H-pyrazolo[4,3-c]azepine-7,4′-tetrahydropyran]-1-yl)-2,2-dimethyl-propyl] 3-sulfamoylbenzoate] | < 100
27 | CCc1nn(CC(C)(C)COC(=O)c2cccc(Cl)c2)c2c1C(=O)NCC1(CCOCC1)C2 [Example 291, [3-(3-ethyl-4-oxo-spiro[6,8-dihydro-5H-pyrazolo[4,3-c]azepine-7,4′-tetrahydropyran]-1-yl)-2,2-dimethyl-propyl] 3-chlorobenzoate] | < 100
28 | CCc1nn(CCCCOC(=O)c2ccc(S(=O)(=O)N3CCCC3)cc2)c2c1C(=O)NCC1(CCOCC1)C2 [Example 377, 4-(3-ethyl-4-oxo-spiro[6,8-dihydro-5H-pyrazolo[4,3-c]azepme-7,4′-tetrahydropyran]-1-yl)butyl 4-pyrrolidin-1-ylsulfonylbenzoate] | 100 to 500
29 | CCc1nn(CC(C)(C)COC(=O)c2ccccc2F)c2c1C(=O)NCC1(CCOCC1)C2 [Example 286, [3-(3-ethyl-4-oxo-spiro[6,8-dihydro-5H-pyrazolo[4,3-c]azepine-7,4′-tetrahydropyran]-1-yl)-2,2-dimethyl-propyl] 2-fluorobenzoate] | < 100
